Reference: US6410584B1, “Method for inhibiting neoplastic cells with indole derivatives” (Cell Pathways, Inc., priority 1998, dated 2002)

| SMILES | melting point [°C] |
| --- | --- |
| CCCCS(=O)(=O)NC(=O)c1ccc2[nH]cc(Cc3ccc(Cl)cc3Cl)c2c1 [Compound 48, 5-(1-butanesulfonylcarbamoyl)-3-(2,4-dichlorobenzyl)indole] | 165.5 to 166.2 |
| CCCCS(=O)(=O)NC(=O)c1ccc2c(Cc3ccc(Cl)cc3Cl)c(C)[nH]c2c1 [Compound 90, 6-(1-butanesulfonylcarbamoyl)-3-(2,4-dichlorobenzyl)-2-methylindole] | 249 to 250 |
| CCCS(=O)(=O)NC(=O)c1ccc2[nH]c(C)c(Cc3ccc(Cl)cc3Cl)c2c1 [Compound 91, 3-(2,4-dichlorobenzyl)-2-methyl-5-(1-propanesulfonylcarbamoyl)indole] | 161 to 163 |
| Cc1[nH]c2ccc(C(=O)NS(=O)(=O)c3ccccc3)cc2c1Cc1ccc(Cl)cc1Cl [Compound 93, 5-(benzenesulfonylcarbamoyl)-3-(2,4-dichlorobenzyl)-2-methylindole] | 244 to 245 |
| CCCCCCS(=O)(=O)NC(=O)c1ccc2[nH]c(C)c(Cc3ccc(Cl)cc3Cl)c2c1 [Compound 94, 3-(2,4-dichlorobenzyl)-5-(1-hexanesulfonylcarbamoyl)-2-methylindole] | 183 to 185 |
| CCCCCS(=O)(=O)NC(=O)c1ccc2[nH]c(C)c(Cc3ccc(-c4ccccc4)cc3)c2c1 [Compound 95, 3-(biphenyl-4-ylmethyl)-2-methyl-5-(1-pentanesulfonylcarbamoyl)indole] | 189 to 190 |
| CCCCCS(=O)(=O)NC(=O)c1ccc2[nH]c(C)c(Cc3ccccc3Cl)c2c1 [Compound 96, 3-(2-chlorobenzyl)-2-methyl-5-(1-pentanesulfonylcarbamoyl)indole] | 175 to 177 |

Other lines, results leading:

| melting point [°C] | SMILES |
| --- | --- |
| 241 to 243 | CCCCS(=O)(=O)NC(=O)c1ccc2[nH]c(C)c(C(=O)c3ccc(Cl)cc3Cl)c2c1 [Compound 97, 5-(1-butanesulfonylcarbamoyl)-3-(2,4-dichlorobenzoyl)-2-methylindole] |
| 167 to 169 | Cc1[nH]c2ccc(C(=O)NS(=O)(=O)CCC(C)C)cc2c1Cc1ccc(Cl)cc1Cl [Compound 98, 3-(2,4-dichlorobenzyl)-2-methyl-5-(3-methyl-1-butanesulfonylcarbamoyl)indole] |
| 180 to 184 | CCCCCS(=O)(=O)NC(=O)c1ccc2[nH]c(C)c(Cc3ccc(OCc4ccccc4)cc3)c2c1 [Compound 100, 3-(4-benzyloxybenzyl)-2-methyl-5-(1-pentanesulfonylcarbamoyl)indole] |
| 168 to 169 | CCCCCS(=O)(=O)NC(=O)c1ccc2[nH]c(CCC)c(Cc3ccc(Cl)cc3Cl)c2c1 [Compound 101, 3-(2,4-dichlorobenzyl)-5-(1-pentanesulfonylcarbamoyl)-2-propylindole] |
| 201 to 205 | Cc1[nH]c2ccc(C(=O)NS(=O)(=O)C(F)(F)F)cc2c1Cc1ccc(Cl)cc1Cl [Compound 113, 3-(2,4-dichlorobenzyl)-2-methyl-5-(trifluoromethanesulfonylcarbamoyl)indole] |
| 215.5 to 216.1 | CCCCS(=O)(=O)NC(=O)c1ccc2c(C)c(Cc3ccc(Cl)cc3Cl)[nH]c2c1 [Compound 121, 6-(1-butanesulfonylcarbamoyl)-2-(2,4-dichlorobenzyl)-3-methylindole] |
